In PubChem BioAssay (NCI):
Values joined by “and” are separate entries in the source; they are usually repeats but may differ in a detail not shown here. Equal entries are not always repeated.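 Cells were grown in 96-well plates and exposed to each compound for 48 hours at five concentrations; endpoints were interpolated linearly between bracketing concentrations, or set to the highest concentration if not reached. GI50 marks 50% less growth. The concentration for full growth arrest is given as TGI.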

How the values were obtained:
Assay in all cases: growth of human tumour cells (NCI), 48 h
ACHN renal = tested on: ACHN renal
BT-549 breast = tested on: BT-549 breast
COLO 205 colon = tested on: COLO 205 colon
DLD-1 colon = tested on: DLD-1 colon
DMS 114 small cell lung = tested on: DMS 114 small cell lung
HCT-116 colon = tested on: HCT-116 colon
HOP-92 NSCLC = tested on: HOP-92 NSCLC
KM12 colon = tested on: KM12 colon
OVCAR-3 ovarian = tested on: OVCAR-3 ovarian
OVCAR-8 ovarian = tested on: OVCAR-8 ovarian

SMILES	TGI (ACHN renal) [µM]	TGI (BT-549 breast) [µM]	TGI (COLO 205 colon) [µM]	TGI (DLD-1 colon)	TGI (DMS 114 small cell lung)	TGI (HCT-116 colon) [µM]	TGI (HOP-92 NSCLC)	TGI (KM12 colon) [µM]	TGI (OVCAR-3 ovarian)	TGI (OVCAR-8 ovarian)	GI50 (ACHN renal)	GI50 (BT-549 breast)	GI50 (COLO 205 colon) [µM]	GI50 (DLD-1 colon) [µM]	GI50 (DMS 114 small cell lung) [µM]	GI50 (HCT-116 colon) [µM]	GI50 (HOP-92 NSCLC) [µM]	GI50 (KM12 colon) [µM]	GI50 (OVCAR-3 ovarian) [µM]	GI50 (OVCAR-8 ovarian) [µM]
NC(N)=NS(=O)(=O)c1ccc(NCc2c3ccccc3nc3ccccc23)cc1	30.5	34.3	> 100	> 77 µM	16 µM	56.2	9.01 µM	70.1	49.6 µM	53.8 µM										
N#CC(C(=O)/C(=N\Nc1nc(=S)[nH]n1N)C(C#N)c1ccc(Cl)cc1)c1ccc(Cl)cc1 (stereo not drawn)	> 100		> 100	> 100 µM	> 100 µM	> 100	> 100 µM	> 100	> 100 µM	> 100 µM										
O=C(CC1(O)C(=O)Nc2ccccc21)c1ccccc1Cl (stereo not drawn)	> 100		> 100	> 100 µM	> 100 µM	> 100	> 100 µM		> 100 µM	> 100 µM										
Cc1ccc(-c2nc(SCC(=O)O)n[nH]2)cc1	> 100		> 100	> 100 µM	> 100 µM	> 100	> 100 µM	> 100	> 100 µM	> 100 µM										
Cc1ccc(NC(=O)c2cccc([N+](=O)[O-])c2O)c([N+](=O)[O-])c1	58.1		38.6	39.9 µM	25.7 µM	30.3	45.4 µM	23	44.1 µM	30.1 µM										
N/N=C1\C(=O)N(C2CCCCC2)C(=O)C1C(=O)NC1CCCCC1 (stereo not drawn)	> 100		> 100	> 100 µM	> 100 µM	> 100	> 100 µM	> 100	51 µM	> 100 µM										
COC1=CC(O)(CC(N)=O)c2ccccc2C1=O (stereo not drawn)	> 100		> 100	> 100 µM	> 100 µM	> 100	> 100 µM	> 100	> 100 µM	> 100 µM										
Cc1ccc(NC(=O)NC(=O)c2ccc([N+](=O)[O-])cc2[N+](=O)[O-])cc1Oc1ncc(Cl)cn1	> 100	32.7	5.9	12.5 µM	10.1 µM	4.78		6.83	13.6 µM	6.7 µM										
CC1=CC(=O)CCC2(C)C1CC[C@@H]2OC=O (stereo partly drawn)	> 100		> 100	> 100 µM	> 100 µM	> 100	> 100 µM	> 100	> 100 µM	> 100 µM										
C=C/C=C(\NC(=O)C(Cl)(Cl)Cl)[Si](C)(C)C	> 100		> 100	> 100 µM	> 100 µM	> 100	> 100 µM	> 100	> 100 µM	> 100 µM										
C[C@]12CCC[C@H](Cl)C1(O)C[C@H](C(=O)O)CC2 (stereo partly drawn)	> 100		> 100	> 100 µM	> 100 µM	> 100	> 100 µM	> 100	> 100 µM	> 100 µM										
CC(=O)OC1CC(n2cc(F)c(=O)[nH]c2=O)OC1CO (stereo not drawn)	> 77.8	> 100	> 100	> 100 µM	> 100 µM	> 100	> 69 µM	> 100	> 100 µM	> 100 µM										
CC[C@H]1CN2CCc3cc(OC)c(OC)cc3[C@@H]2C[C@@H]1C[C@H]1NCCc2cc(O)c(OC)cc21	0.0758	0.298	0.0187	0.0454 µM and 0.356 µM	0.0247 µM and 0.0373 µM		0.0742 µM and < 0.0176 µM		0.0774 µM and 0.287 µM	0.0519 µM and < 0.0323 µM and 0.165 µM	22.1 nM and < 11.5 nM	42.2 nM and 48.5 nM								
CCn1c2c(n(CC)c1=S)-c1c(n(CC)c(=S)n1CC)SSSS2	16	29.1	19.1	5.73 µM	38.1 µM	11	9.71 µM	35.9	17.9 µM	23.3 µM										
COc1cc2c(cc1OC)-c1cc3cc(OC)c(OC)cc3n1CC2	85.9		> 100	> 100 µM	> 100 µM	> 100	> 100 µM	> 100	> 100 µM	73.1 µM										
COC1(OC)CC2C=C(S(=O)(=O)c3ccccc3)C1N(Cc1ccccc1)C2=O (stereo not drawn)	> 100		43.4	96.2 µM	48.3 µM	30	95.5 µM	92.3	56.6 µM	64.7 µM										
CC(=O)C1CC=C(C)CC1 (stereo not drawn)	> 100		> 100	> 100 µM	> 100 µM	> 100	> 100 µM	> 100	> 100 µM	> 100 µM										
CN(C)c1ccc(N=Cc2c([O-])ccc3ccccc23)cc1.[C-]#[O+].[C-]#[O+].[Ir]	43.7		33.9	37.6 µM	22.8 µM	32.1	37.3 µM	37.7	32.4 µM	> 100 µM	18800 nM		17.5	17.4	10.5	17.7	17.2	18	16.6	28.8
Brc1ccc(-c2nnc(-c3nn(-c4ccccc4)c4nc5ccccc5nc34)o2)cc1	> 100		> 100	> 100 µM	> 100 µM	> 100	> 100 µM	> 100	> 100 µM	> 100 µM										
